Experimental data published in BindingDB's records for doi:10.1021/jm060955d (Abbott Laboratories, 2006).

Experiments:
Test in all cases: DPP Inhibition Assay
Details in all cases: pH 7.5; 22 °C
[1] = target: Dipeptidyl peptidase 4 (Homo sapiens, UniProt P27487)
Protocol: (§1) For each concentration of inhibitor or DMSO control, the steady state rates were used to fit a rectangular hyperbola, from which Km and Vmax values were determined by nonlinear regression analysis. The ratio of the Km/Vmax vs inhibitor concentration was plotted and the negative X-intercept, as calculated by linear regression, was the competitive Ki.

[2] = target: Dipeptidyl peptidase 9 (Homo sapiens, UniProt Q86TI2)
Protocol: as §1

[3] = target: Dipeptidyl peptidase 8 (Homo sapiens, UniProt Q6V1X1)
Protocol: as §1

Chain of Dipeptidyl peptidase 4 (P27487 whole entry): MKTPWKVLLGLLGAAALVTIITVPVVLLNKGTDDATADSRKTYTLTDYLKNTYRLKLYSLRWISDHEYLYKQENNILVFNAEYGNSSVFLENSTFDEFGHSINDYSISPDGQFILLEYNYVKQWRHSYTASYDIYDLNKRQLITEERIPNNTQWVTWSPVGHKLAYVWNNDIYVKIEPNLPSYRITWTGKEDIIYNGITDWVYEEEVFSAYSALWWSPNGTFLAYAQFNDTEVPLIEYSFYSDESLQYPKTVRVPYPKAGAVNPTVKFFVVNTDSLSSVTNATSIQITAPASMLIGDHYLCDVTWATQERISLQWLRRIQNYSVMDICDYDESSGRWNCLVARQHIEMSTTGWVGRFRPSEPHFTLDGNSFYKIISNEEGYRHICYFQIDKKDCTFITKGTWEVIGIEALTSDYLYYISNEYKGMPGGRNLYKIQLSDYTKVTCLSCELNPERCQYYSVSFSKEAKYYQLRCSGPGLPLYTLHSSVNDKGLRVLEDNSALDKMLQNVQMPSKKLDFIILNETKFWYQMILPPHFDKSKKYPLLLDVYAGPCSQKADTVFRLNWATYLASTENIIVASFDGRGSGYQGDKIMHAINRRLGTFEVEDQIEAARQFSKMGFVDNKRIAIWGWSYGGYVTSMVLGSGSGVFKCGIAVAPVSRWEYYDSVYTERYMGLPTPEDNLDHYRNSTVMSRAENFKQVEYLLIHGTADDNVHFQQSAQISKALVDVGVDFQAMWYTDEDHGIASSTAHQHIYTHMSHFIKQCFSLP
Chain of Dipeptidyl peptidase 9 (Q86TI2 whole entry): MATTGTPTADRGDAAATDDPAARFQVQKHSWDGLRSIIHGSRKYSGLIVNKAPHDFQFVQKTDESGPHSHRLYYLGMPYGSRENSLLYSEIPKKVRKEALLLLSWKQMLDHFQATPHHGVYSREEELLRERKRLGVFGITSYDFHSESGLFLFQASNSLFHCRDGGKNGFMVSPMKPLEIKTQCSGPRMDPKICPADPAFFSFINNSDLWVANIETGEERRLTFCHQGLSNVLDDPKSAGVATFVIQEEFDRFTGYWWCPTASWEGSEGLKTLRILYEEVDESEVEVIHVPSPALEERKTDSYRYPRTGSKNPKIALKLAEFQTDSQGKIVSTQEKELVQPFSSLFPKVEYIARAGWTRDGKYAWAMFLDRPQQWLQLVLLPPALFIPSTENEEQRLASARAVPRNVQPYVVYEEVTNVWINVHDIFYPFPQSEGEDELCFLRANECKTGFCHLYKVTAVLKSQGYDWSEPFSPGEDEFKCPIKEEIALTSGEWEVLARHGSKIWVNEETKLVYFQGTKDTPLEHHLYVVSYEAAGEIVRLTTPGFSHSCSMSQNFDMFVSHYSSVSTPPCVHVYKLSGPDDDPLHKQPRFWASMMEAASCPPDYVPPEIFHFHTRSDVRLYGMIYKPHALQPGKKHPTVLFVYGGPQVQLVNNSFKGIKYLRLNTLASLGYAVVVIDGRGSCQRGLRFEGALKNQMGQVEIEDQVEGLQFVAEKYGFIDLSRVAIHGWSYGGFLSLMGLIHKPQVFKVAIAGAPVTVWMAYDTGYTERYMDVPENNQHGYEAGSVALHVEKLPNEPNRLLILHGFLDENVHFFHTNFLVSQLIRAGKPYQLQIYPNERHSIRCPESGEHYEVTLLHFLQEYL
Chain of Dipeptidyl peptidase 8 (Q6V1X1 whole entry): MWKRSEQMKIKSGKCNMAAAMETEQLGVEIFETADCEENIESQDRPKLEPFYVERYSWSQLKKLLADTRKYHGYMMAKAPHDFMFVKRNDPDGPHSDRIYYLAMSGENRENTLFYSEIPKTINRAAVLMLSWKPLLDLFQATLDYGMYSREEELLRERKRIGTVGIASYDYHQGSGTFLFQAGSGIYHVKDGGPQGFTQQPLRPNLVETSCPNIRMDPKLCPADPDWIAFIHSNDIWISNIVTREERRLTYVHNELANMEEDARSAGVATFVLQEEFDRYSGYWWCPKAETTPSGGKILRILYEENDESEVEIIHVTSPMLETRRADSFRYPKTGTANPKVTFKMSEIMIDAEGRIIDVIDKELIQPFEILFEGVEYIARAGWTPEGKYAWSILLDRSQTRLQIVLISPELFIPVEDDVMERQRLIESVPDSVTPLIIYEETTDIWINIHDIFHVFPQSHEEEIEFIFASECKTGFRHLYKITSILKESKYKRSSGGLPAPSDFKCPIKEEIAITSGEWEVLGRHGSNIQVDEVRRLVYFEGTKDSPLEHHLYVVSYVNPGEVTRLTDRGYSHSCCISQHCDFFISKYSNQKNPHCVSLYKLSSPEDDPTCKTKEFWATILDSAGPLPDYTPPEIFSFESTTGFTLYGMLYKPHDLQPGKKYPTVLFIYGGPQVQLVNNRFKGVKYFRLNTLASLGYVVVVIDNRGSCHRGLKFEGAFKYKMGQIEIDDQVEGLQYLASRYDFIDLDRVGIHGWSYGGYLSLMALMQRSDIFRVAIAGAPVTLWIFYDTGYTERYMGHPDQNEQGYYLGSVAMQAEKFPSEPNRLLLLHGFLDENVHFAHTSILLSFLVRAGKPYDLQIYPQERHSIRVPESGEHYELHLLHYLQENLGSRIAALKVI

SMILES	Ki [1]	Ki [2]	Ki [3]
N[C@H]1CC(C(=O)N2CCn3c(nnc3C(F)(F)F)C2)=CC[C@@H]1c1cc(F)c(F)cc1F [(1S,6R)-3-{[3-(trifluoromethyl)-5H,6H,7H,8H-[1,2,4]triazolo[3,4-a]pyrazin-7-yl]carbonyl}-6-(2,4,5-trifluorophenyl)cyclohex-3-en-1-aminium; 2,2,2-trifluoroacetate]	1.3 nM	4000 nM	> 30000 nM
N[C@H]1CC(c2ccccc2)=CC[C@@H]1c1ccccc1Cl [(1S,6R)-6-(2-chlorophenyl)-3-phenylcyclohex-3-en-1-aminium; 2,2,2-trifluoroacetate]	< 140 nM	–	–
